What follows are compounds tested against Prothrombin (Bos taurus) (UniProt P00735) (assay: Rate of hydrolysis by thrombin relative to TAME). Details: not given.

Relative hydrolysis | SMILES
0.084 | CN(C)c1cccc2c(S(=O)(=O)NC(CCCN=C(N)N)C(=O)OCCCCl)cccc12 (configuration not stated)

Each compound was assayed against Serine protease 1 (Homo sapiens) (UniProt P07477) (assay: Rate of hydrolysis by trypsin relative to TAME). Details: not given.
Sequence of Serine protease 1 (Homo sapiens) (P07477 whole entry): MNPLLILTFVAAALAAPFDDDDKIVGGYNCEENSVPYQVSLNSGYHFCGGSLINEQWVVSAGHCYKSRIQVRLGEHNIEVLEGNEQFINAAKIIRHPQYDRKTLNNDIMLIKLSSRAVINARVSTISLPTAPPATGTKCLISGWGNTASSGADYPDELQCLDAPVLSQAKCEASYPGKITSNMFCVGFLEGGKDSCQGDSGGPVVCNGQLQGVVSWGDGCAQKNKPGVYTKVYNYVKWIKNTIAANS

Relative hydrolysis | SMILES
0.5 | CN(C)c1cccc2c(S(=O)(=O)NC(CCCN=C(N)N)C(=O)OCCCCl)cccc12 (configuration not stated)

The compounds below were run against T1, Prothrombin (Bos taurus, UniProt P00735) (assay: Concentration at which the clotting time was prolonged by twice the control was determined using commercial topical bovine thrombin.). Details: not given.
Format: functional

IC50 [µM] | SMILES
2000 | COC(=O)C(CCCN=C(N)N)NS(=O)(=O)c1cccc2c(N(C)C)cccc12 (configuration not stated)

The compounds below were run against T1, Prothrombin (assay: Concentration at which the clotting time was prolonged by twice the control was determined using topical bovine thrombin). Details: read-out: I50.
Format: functional

SMILES | IC50 [µM]
CN(C)c1cccc2c(S(=O)(=O)NC(CCCN=C(N)N)C(=O)OC3CCCCC3)cccc12 (configuration not stated) | 60
COC(=O)C(CCCNC(=N)N)NS(=O)(=O)c1cccc2ccccc12 (configuration not stated) | 520
COC(=O)C(CCCNC(=N)N)NS(=O)(=O)c1ccc(Cl)cc1 (configuration not stated) | 2700
COC(=O)C(CCCN=C(N)N)NS(=O)(=O)c1ccc2ccccc2c1 (configuration not stated) | 130
COC(=O)C(CCCN=C(N)N)NS(=O)(=O)c1cccc2cc(N(C)C)ccc12 (configuration not stated) | 100
CCCCCOC(=O)C(CCCN=C(N)N)NS(=O)(=O)c1cccc2c(N(C)C)cccc12 (configuration not stated) | 49
CCC(COC(=O)C(CCCN=C(N)N)NS(=O)(=O)c1cccc2c(N(C)C)cccc12)[N+](=O)[O-] (configuration not stated) | 200
COC(=O)C(CCCNC(=N)N)NS(=O)(=O)c1ccc(OC)cc1 (configuration not stated) | 100
CC(C)OC(=O)C(CCCNC(=N)N)NS(=O)(=O)c1cccc2c(N(C)C)cccc12 (configuration not stated) | 30
CCC(C)OC(=O)C(CCCNC(=N)N)NS(=O)(=O)c1cccc2c(N(C)C)cccc12 (configuration not stated) | 2000
COC(=O)C(CCCN=C(N)N)NS(=O)(=O)c1ccc(F)cc1 (configuration not stated) | 5200
COC(=O)C(CCCN=C(N)N)NS(=O)(=O)c1ccc(N)cc1 (configuration not stated) | 4800
COC(=O)C(CCCN=C(N)N)NS(=O)(=O)c1cccc([N+](=O)[O-])c1 (configuration not stated) | 2900
CN(C)c1cccc2c(S(=O)(=O)NC(CCCNC(=N)N)C(=O)OCC3CCCO3)cccc12 (configuration not stated) | 20
COC(=O)C(CCCN=C(N)N)NS(=O)(=O)c1ccc([N+](=O)[O-])cc1 (configuration not stated) | 2400
CN(C)c1cccc2c(S(=O)(=O)NC(CCCN=C(N)N)C(=O)O)cccc12 (configuration not stated) | > 1000

Next, values leading:

IC50 [µM] | SMILES
2 | C/C=C/COC(=O)C(CCCNC(=N)N)NS(=O)(=O)c1cccc2c(N(C)C)cccc12 (configuration not stated)
20 | COC(=O)C(CCCN=C(N)N)NS(=O)(=O)c1cccc2c(N(C)C)cccc12 (configuration not stated)
10 | CC(C)COC(=O)C(CCCN=C(N)N)NS(=O)(=O)c1cccc2c(N(C)C)cccc12 (configuration not stated)
2 | CN(C)c1cccc2c(S(=O)(=O)NC(CCCNC(=N)N)C(=O)OCc3ccccc3)cccc12 (configuration not stated)
2 | CCCOC(=O)C(CCCN=C(N)N)NS(=O)(=O)c1cccc2c(N(C)C)cccc12 (configuration not stated)
4 | C#CCCOC(=O)C(CCCN=C(N)N)NS(=O)(=O)c1cccc2c(N(C)C)cccc12 (configuration not stated)
8 | CCOC(=O)C(CCCNC(=N)N)NS(=O)(=O)c1cccc2c(N(C)C)cccc12 (configuration not stated)
5 | COCCOC(=O)C(CCCNC(=N)N)NS(=O)(=O)c1cccc2c(N(C)C)cccc12 (configuration not stated)
